# Assay results published in ChEMBL document CHEMBL1201862, “PubChem BioAssay data set” (2004).
# The source made the active and inactive calls.
# How the values were obtained:
# H9c2 = test: cells; type: functional, cell-based; conditions: Rattus norvegicus, H9c2, Myocardium;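 note: confirmatory concentration-response retest of ultra-high-throughput screening hits for modulation of myocardial damage; cell death induced by hydrogen peroxide oxidative stress; compound pretreatment for 60 min then peroxide exposure for 2 h; potency is for protecting the cells against peroxide damage rather than for killing them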
# [1] = biological target: T1, Replicative DNA helicase DnaB (Mycobacterium tuberculosis, UniProt P9WMR3); test: DnaB intein splicing inhibitors, dose response, biochemical, cell-free fluorescence (AID 449749); type: functional
# T1 sequence (P9WMR3 whole entry): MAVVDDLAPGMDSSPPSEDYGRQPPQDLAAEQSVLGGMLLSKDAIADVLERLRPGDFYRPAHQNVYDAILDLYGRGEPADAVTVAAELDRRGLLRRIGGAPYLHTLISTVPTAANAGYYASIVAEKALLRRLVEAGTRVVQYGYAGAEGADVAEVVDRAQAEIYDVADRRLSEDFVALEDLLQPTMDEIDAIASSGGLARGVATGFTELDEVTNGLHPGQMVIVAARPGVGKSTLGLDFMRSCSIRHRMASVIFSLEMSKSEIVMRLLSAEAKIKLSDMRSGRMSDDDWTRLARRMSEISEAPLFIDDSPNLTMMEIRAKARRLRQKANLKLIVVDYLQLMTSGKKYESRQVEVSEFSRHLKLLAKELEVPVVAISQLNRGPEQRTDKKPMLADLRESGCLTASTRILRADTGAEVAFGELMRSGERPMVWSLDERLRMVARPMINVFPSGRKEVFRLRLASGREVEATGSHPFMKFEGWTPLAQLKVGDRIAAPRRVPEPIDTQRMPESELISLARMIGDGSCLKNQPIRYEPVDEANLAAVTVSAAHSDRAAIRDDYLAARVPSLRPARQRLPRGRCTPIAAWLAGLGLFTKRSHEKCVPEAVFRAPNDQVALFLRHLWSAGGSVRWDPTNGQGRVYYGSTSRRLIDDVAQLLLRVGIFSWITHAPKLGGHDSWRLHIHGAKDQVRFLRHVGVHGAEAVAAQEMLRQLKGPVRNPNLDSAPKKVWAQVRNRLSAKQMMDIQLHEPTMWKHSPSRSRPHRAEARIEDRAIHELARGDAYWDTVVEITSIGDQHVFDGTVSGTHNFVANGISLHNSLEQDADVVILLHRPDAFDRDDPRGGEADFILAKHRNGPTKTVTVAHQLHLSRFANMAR
# Protein RecA = biological target: T2, Protein RecA (Mycobacterium tuberculosis, UniProt P9WHJ3); test: Fluorescence Cell-Free Homogeneous Dose Retest to Identify Inhibitors of RecA-Intein Splicing Activity. [Related pubchem assays (depositor defined):AID2097, AID2223, AID489010, AID492950]; type: functional
# T2 sequence (P9WHJ3 whole entry): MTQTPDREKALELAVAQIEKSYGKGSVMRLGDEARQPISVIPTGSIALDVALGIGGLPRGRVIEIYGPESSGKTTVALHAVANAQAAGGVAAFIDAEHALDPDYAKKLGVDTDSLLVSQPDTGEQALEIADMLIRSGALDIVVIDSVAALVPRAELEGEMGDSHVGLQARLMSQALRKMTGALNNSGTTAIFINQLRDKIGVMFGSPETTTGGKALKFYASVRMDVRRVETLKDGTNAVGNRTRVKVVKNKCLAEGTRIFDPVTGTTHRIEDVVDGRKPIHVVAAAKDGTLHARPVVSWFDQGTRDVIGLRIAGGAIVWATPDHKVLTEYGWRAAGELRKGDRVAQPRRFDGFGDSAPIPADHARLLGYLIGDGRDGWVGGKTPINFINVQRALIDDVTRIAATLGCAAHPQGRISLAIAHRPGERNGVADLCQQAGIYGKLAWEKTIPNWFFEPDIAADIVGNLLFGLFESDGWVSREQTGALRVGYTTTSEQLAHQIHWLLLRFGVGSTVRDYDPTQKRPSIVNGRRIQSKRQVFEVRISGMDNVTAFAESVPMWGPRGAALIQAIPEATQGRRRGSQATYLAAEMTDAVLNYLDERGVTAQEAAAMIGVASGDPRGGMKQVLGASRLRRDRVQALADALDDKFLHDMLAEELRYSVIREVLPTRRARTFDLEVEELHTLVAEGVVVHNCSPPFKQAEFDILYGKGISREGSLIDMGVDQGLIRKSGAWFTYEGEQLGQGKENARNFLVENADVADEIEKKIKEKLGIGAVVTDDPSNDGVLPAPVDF
# [2] = biological target: T3, Heat shock factor protein 1 (Mus musculus, UniProt P38532); test: inhibition of MG132-induced HSE-luciferase signal, confirmation, cell-based, NIH3T3, luminescence, dose retest (AID 2382); type: functional;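 note: NIH3T3 fibroblasts with HSF1-driven luciferase reporter stressed by proteasome inhibitor MG132; luminescence from HSF1-driven luciferase expression after 8 hours of MG132 stress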
# T3 sequence (P38532 whole entry): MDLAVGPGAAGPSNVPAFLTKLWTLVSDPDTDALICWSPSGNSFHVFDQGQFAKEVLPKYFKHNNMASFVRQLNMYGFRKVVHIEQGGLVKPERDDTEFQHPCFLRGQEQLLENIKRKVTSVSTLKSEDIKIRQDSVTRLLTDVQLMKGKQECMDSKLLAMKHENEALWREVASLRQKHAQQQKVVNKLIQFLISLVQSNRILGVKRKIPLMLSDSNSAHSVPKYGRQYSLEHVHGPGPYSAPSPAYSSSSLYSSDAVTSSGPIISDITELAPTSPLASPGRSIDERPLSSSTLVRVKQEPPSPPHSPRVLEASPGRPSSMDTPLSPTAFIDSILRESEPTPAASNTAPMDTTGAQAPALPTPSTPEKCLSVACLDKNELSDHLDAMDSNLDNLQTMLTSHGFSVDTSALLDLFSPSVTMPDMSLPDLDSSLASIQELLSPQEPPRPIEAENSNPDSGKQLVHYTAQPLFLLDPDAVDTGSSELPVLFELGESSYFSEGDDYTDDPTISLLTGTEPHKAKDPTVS
# Cytochrome P450 3A4 = Cytochrome P450 3A4 (Homo sapiens, UniProt P08684);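 note: CYP3A4 tested as one member of a cytochrome P450 panel screen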
# Cytochrome P450 2C19 = Cytochrome P450 2C19 (Homo sapiens, UniProt P33261); test: Cytochrome panel assay with activity outcomes. Panel member name: p450-cyp2c19 Compounds with AC50 equal or less than 10 uM are considered active; type: functional; conditions: read-out: AC50
# [3] = test system: Streptococcus sp. 'group A'; test: growth inhibition of control SK(-) GAS strain, dose response, counter-screen for streptokinase expression inhibitor project, luminescence, kanamycin, BacTiterGlo, confirmation (AID 1900); type: functional, organism-based
# [4] = inhibitors of intracellular T. cruzi replication, confirmation, NIH3T3 host cells, beta-gal luminescence (AID 2044); type: functional, cell-based;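 note: intracellular parasites grown in NIH/3T3 mouse fibroblasts as host cells; luminescent beta-galactosidase reporter signal from transgenic T. cruzi replicating inside host cells; inhibitors lower the luminescence signal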
# [5] = cytotoxicity toward NIH3T3 fibroblasts, dose response, counter-screen, cell-based, ATP luminescence, mouse fibroblasts (AID 2010); type: functional;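 note: cells exposed to compound for about 90 hours before reading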
# Streptococcus = test: Group A Streptococcus viability loss, dose response, counter-screen for streptokinase expression inhibitor project, luminescence, BacTiterGlo (AID 1915); type: functional, organism-based;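 note: potency for reduction of bacterial viability or growth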
# Streptokinase A = biological target: T4, Streptokinase A (Streptococcus pyogenes serotype M1, UniProt P10520); test: S. pyogenes streptokinase expression inhibitors, potency, dose response, plasminogen activation absorbance, OD405 (AID 1914); type: functional, Streptococcus pyogenes M1 GAS;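 note: secreted streptokinase activity via plasminogen activation per viability signal from cell pellet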
# T4 sequence (P10520 whole entry): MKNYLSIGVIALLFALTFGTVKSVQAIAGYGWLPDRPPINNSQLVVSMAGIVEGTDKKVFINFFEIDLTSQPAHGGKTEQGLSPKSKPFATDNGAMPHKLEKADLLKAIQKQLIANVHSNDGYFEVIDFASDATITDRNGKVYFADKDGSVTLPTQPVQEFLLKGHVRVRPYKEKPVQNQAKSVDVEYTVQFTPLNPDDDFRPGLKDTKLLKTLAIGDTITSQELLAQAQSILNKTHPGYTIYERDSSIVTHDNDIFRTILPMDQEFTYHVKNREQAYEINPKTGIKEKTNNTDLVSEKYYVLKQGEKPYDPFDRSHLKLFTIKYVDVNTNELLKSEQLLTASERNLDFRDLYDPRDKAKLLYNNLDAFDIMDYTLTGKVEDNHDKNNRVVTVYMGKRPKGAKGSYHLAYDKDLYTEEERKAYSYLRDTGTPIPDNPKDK
# Sequence of Cytochrome P450 3A4 (P08684 whole entry): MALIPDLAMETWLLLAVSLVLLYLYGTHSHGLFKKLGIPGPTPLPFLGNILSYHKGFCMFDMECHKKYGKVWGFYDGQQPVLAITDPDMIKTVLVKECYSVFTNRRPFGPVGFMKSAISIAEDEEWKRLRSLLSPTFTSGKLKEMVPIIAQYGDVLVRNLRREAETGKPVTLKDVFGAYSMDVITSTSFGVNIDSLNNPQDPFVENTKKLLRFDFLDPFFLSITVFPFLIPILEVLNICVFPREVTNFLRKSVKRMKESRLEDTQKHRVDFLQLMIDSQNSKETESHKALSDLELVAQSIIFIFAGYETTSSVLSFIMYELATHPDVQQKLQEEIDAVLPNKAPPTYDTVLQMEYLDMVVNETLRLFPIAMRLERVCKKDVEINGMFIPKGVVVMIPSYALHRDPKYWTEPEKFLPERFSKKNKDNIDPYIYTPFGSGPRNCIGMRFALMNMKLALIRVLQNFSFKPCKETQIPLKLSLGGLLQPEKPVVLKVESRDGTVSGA
# Sequence of Cytochrome P450 2C19 (P33261 whole entry): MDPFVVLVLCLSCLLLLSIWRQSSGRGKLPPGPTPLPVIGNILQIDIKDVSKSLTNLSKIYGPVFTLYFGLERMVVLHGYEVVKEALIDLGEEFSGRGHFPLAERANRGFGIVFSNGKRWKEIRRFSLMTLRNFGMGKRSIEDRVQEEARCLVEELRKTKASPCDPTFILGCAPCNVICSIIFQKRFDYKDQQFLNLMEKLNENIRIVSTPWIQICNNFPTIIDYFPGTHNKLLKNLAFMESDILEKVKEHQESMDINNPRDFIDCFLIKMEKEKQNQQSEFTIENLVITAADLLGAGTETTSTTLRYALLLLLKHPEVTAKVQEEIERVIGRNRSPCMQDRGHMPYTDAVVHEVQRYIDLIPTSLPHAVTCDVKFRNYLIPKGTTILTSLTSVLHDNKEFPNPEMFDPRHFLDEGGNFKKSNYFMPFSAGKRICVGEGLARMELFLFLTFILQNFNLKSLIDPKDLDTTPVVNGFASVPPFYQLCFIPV
compound,measurement,setting,value
CCN(CC(=O)Nc1c(F)cccc1F)C(=O)Cn1[nH]c(=O)c2ccccc2c1=O,IC50,H9c2,> 79 µM (inactive)
COC(=O)c1ccccc1S(=O)(=O)N1CCC(NC(=O)c2ccccc2)CC1,AC50,[1],3.36 µM (active)
same,EC50,Protein RecA,15.1 µM (active)
O=C(O)C1CSC(c2ccc3c(c2)OCO3)N1 (stereo not drawn),EC50,[2],> 195 µM (not active)
Oc1ncnc2sc3c(c12)CCC3,IC50,H9c2,23 µM (active)
COc1cccc(-c2cnc3c(NC=O)cc(-c4cc(C)c(O)c(C)c4)cn23)c1,IC50,H9c2,> 79 µM (inactive)
CCCC(C)NS(=O)(=O)c1ccccc1 (stereo not drawn),EC50,[2],> 195 µM (not active)
O=C(Cn1cccc1)NC1CCCCCC1,AC50,Cytochrome P450 3A4,17.8 µM (inconclusive)
same,AC50,Cytochrome P450 2C19,6.31 µM (inconclusive)
COc1cc(/C=C(\C#N)C(=O)Nc2ccccc2)ccc1OCCN1CCOCC1,IC50,H9c2,> 79 µM (inactive)
Cc1cccc(Sc2c(C=O)c3ccccc3n2C)c1,AC50,[1],5.7 µM (active)
same,EC50,Protein RecA,29.6 µM (active)
CCOC(=O)/C(=N\Nc1ccc(OC)cc1)c1csc(Nc2ccccc2)n1,EC50,[3],3.87 µM (active)
same,EC50,[4],1.33 µM (active)
same,EC50,[5],9.87 µM (active)
same,EC50,Streptococcus,10.8 µM (active)
same,EC50,Streptokinase A,> 150 µM (not active)
C=CCC(Nc1ccccc1)c1ccc(OC)c(OC)c1 (stereo not drawn),EC50,[2],> 195 µM (not active)
COC(=O)c1[nH]c2ccccc2c1NC(=O)CNC1CCCCC1,IC50,H9c2,> 79 µM (inactive)
Cc1c(C(=O)Nc2ccc3nc(N4CCOCC4)sc3c2)oc2ccccc12,IC50,H9c2,> 79 µM (inactive)
COc1ccc(N2C(=O)CC(NNc3ncc(Cl)cc3Cl)C2=O)cc1 (stereo not drawn),EC50,[2],> 195 µM (not active)
COc1ccc(C2NC(S)=NC3=C2CCc2ccccc23)cc1OC (stereo not drawn),AC50,[1],20 µM (active)
same,EC50,Protein RecA,11.2 µM (active)
CSc1n[nH]c(-c2sccc2OCc2ccc(C)cc2)n1,AC50,Cytochrome P450 3A4,20 µM (inconclusive)
CC(C)c1nc2ccccc2c2nnc(SCC(=O)NCc3ccco3)n12,EC50,[2],> 195 µM (not active)
COc1cccc(CNC(=O)c2ccccc2SCC(=O)N2CCCC2)c1,EC50,[2],> 195 µM (not active)
O=C(N/N=C/c1ccco1)/C(=C/c1cccc([N+](=O)[O-])c1)NC(=O)c1ccccc1,AC50,Cytochrome P450 3A4,1.12 µM (inconclusive)
same,AC50,Cytochrome P450 2C19,1 µM (inconclusive)
CC(C)c1ccccc1NC(=O)COC(=O)c1c2c(nc3ccccc13)CCN(Cc1ccccc1)C2,IC50,H9c2,> 79 µM (inactive)
O=C1CC(CSc2ccc(Cl)cc2)=NN1,AC50,[1],3.23 µM (active)
same,EC50,Protein RecA,1.61 µM (active)
COc1ccc(-c2cc(-c3ccc(O)cc3)nc(N)c2C#N)cc1OC,IC50,H9c2,> 79 µM (inactive)
COc1ccccc1CNC(=O)N1CCN(c2ccccc2C)CC1,EC50,[2],> 195 µM (not active)
COc1ccc([N+](=O)[O-])cc1NC(=O)C(C)OC(=O)Cn1[nH]c(=O)c2ccccc2c1=O (stereo not drawn),IC50,H9c2,> 79 µM (inactive)
Cc1cc(C)nc(SCc2ccc(C(=O)N/N=C/c3ccccn3)cc2)n1,IC50,H9c2,> 79 µM (inactive)
CCOc1cc(/C=C/c2ccc3cccc([N+](=O)[O-])c3n2)ccc1OCC(=O)N(C)C,IC50,H9c2,10.7 µM (active)
CCCc1n[nH]c2c1C(c1ccc(OCCN3CCOCC3)c(OC)c1)C(C#N)=C(N)O2 (stereo not drawn),AC50,[1],41.4 µM (active)
same,EC50,Protein RecA,9.37 µM (active)
Cc1ccc(CSC(=N)Nc2ccccc2)cc1C,AC50,Cytochrome P450 3A4,3.16 µM (inconclusive)
CC(C)c1ccc(OCCCN2CCCC2)cc1,EC50,[2],> 195 µM (not active)
CO[C@H]1COC(=O)[C@@H](C)COC(=O)[C@@H](Cc2ccccc2)NC(=O)C/C=C\[C@H]1C,AC50,Cytochrome P450 3A4,6.31 µM (inconclusive)
Cc1cccc2sc(NC(=O)[C@H](C)N3C(=O)C4CC=CCC4C3=O)nc12 (stereo partly drawn),EC50,[2],> 195 µM (not active)
COc1ccc(/C=C/C(=O)N2CCN(c3ccccn3)CC2)cc1OC,EC50,[2],> 195 µM (not active)
CCOC(=O)Cc1n[nH]c2c1C(c1cccc(OC)c1OC)C(C#N)=C(N)O2 (stereo not drawn),AC50,[1],34.7 µM (inconclusive)
same,EC50,Protein RecA,> 380 µM (inactive)
O=C(O)CSc1c2c(nc3cc(C(=O)Nc4cccc(C(F)(F)F)c4)ccc13)CCCC2,AC50,[1],22.6 µM (active)
same,EC50,Protein RecA,13 µM (active)
CCOc1cc(C(=S)N2CCOCC2)ccc1OS(=O)(=O)c1ccc(OC)cc1,EC50,[2],> 195 µM (not active)
COc1cc2c(cc1OC)CN(c1nc(-c3cccnc3)nc3ccccc13)CC2,IC50,H9c2,> 79 µM (inactive)
Cc1ccc(CS(=O)(=O)CCC(=O)NCc2ccccn2)cc1,AC50,Cytochrome P450 3A4,31.6 µM (inconclusive)
CCOC(=O)c1[nH]c2cc(OC)c(OC)cc2c1NC(=O)C(C)N1CCN(Cc2ccccc2)CC1 (stereo not drawn),IC50,H9c2,10.2 µM (active)
CSc1ncccc1C(=O)N1CCCC(N2CCN(c3ccccc3F)CC2)C1 (stereo not drawn),EC50,[2],> 195 µM (not active)
CCS(=O)(=O)N1CCC2(CC1)OCCN2S(=O)(=O)c1ccc(OC)cc1,EC50,[2],> 195 µM (not active)
Cc1ccc(C)c(C(=O)Nc2cc(C)nn2-c2nc(C)cc(C)n2)c1,IC50,H9c2,> 79 µM (inactive)
same,EC50,[2],> 195 µM (not active)
COc1cc2nc(S)n3nc(COc4ccccc4C)nc3c2cc1OC,EC50,[3],4.21 µM (active)
same,EC50,Streptococcus,10.5 µM (active)
same,EC50,Streptokinase A,> 150 µM (not active)
